We go through one molecule from the NIST ThermoML archive (doi:10.1016/j.jct.2016.10.029).

Molecules are shown by their SMILES. Numbers after ± are expanded uncertainties.

A short description of data set [1]: Molar enthalpy of transition or fusion. The note with it: Crystal; DSC.
For data set [2] the following is noted: Crystal; DTA.

In the case of `CCOc1cc(C=O)ccc1O` [3-ethoxy-4-hydroxybenzaldehyde], the “Molar enthalpy of transition or fusion” value in data set [1] was found to be 5.68 ± 0.263 kcal/mol. In data set [2], the Normal melting temperature was 79.83 ± 1.1 °C.
